Experimental data from US4075189A, “Hexapeptides” (Parke, Davis & Company, priority 1976, dated 1978).
Several values for one entry are separate records, joined by “and”; a condition that tells them apart may be missing. Equal entries are not always repeated. No end group written: not given here.

Test system: LRF (luteinizing hormone releasing factor) induced luteinizing hormone (LH) release
Experiment: LRF antagonist activity in vitro, rat anterior pituitary cell cultures (Vale et al.)
Format: cell-based
Details: LRF alone
Excerpt: Hexapeptides of this invention were screened for LRF antagonist activity in vitro using rat anterior pituitary cell cultures as described by Vale et. al. [Endocrinology, 91, 562 (1972)]. The inhibition of LRF (luteinizing hormone releasing factor) induced luteinizing hormone (LH) release into the culture medium is the endpoint in this in vitro bioassay.

LRF Control: luteinizing hormone releasing factor, also referred to as luteinizing hormone releasing hormone, LH-RH; stimulus in the bioassay (QHWSYGLRPG; ends and bridges not checked; UniProt P01148 24-33, looked up)
LH Value (Molar Conc. 2.5×10^-10): 38.98 ng/mL
LH Value (Molar Conc. 3.5×10^-10): 35.60 ng/mL and 49.99 ng/mL and 41.70 ng/mL and 64.13 ng/mL
LH Value (Molar Conc. 5×10^-10): 63.61 ng/mL
